{"source": "paper PMC11887511", "about": "(Crystal Growth & Design, 2025)", "origin": "cited, not measured here", "settings": "no reference given"}
{"smiles": "O=C(O)CNCC(=O)O", "note": "[IDA, iminodiacetic acid]", "values": [{"measurement": "pKa1", "result": 2.12}, {"measurement": "pKa2", "result": 2.90}, {"measurement": "pKa[base]", "result": 9.63}]}
